Marks after values point to notes of the source that are not given here.
Tests used:
[1] = system: Chinese hamster V79-379 lung fibroblasts; assay: Uptake of phthalocyanines into V79 cells; settings: for n Moles/10^6 Cells/μM (composite uptake value): V79 cells, average of all data, asterisk: listed value is for 1 μM, average would be higher
Experimental: Chinese hamster V79-379 lung fibroblasts were grown in monolayer culture in McCoy's 5A medium (Gibco Laboratories, Grand Island, N.Y.) augmented with 10% calf serum and buffered with 20 mM HEPES (pH 7.4).
Total uptake was determined by scraping the phthalocyanine-treated monolayer, collecting the cells on a glass-fiber filter, and extracting the phthalocyanine in ethanol, as previously described by Ramakrishnan, et al., 1989. (Ramakrishnan, N., M. E. Clay, M. F. Horng, A. R. Antunez, & H. H. Evans, “DNA Lesions and DNA Degradation in Mouse Lymphoma L5178Y Cells After Photodynamic Treatment Sensitized by Chloroaluminum Phthalocyanine”, Photochem. Photobiol, in press, 1989). The amount of drug was determined by absorption at 674 nm and expressed relative to the number of cells, as measured in a Coulter cell counter on an aliquot of the cell population. Controls included cells not treated with drug, medium alone, and drug-containing medium without cells.
The cells were treated with 1 μM AlPcCl (from Eastman Kodak, Rochester, N.Y.) or with phthalocyanine compositions I-VI (0.5-1.0 μM final concentration in the medium) for 18 hours by adding the appropriate volume of a 1.0 mM stock solution in dimethylformamide (DMF) to the culture medium. The growth medium was replaced with 4 mL Hank's balanced salt solution (HBSS), and the cells were irradiated. The light source was a 500 W tungsten-halogen lamp located approximately 29 inches below the surface of a glass exposure tray. The visible light administered to the cells was filtered to allow passage of only that portion of the visible spectrum above 600 nm (Lee Primary red filter No. 106, Vincent Lighting, Cleveland, Ohio). The fluence rate was approximately 0.074 kJ/m^2/s at the level of the cell monolayer.
V79 cells Chinese hamster lung fibroblasts were cultured using the cell culture methods described above. The phthalocyanines listed in table 2 were added to the cultures typically at concentrations of 1 μM, 2 μM, and/or 4 μM and incubated for 18 hours, after which aliquots of the cells were counted and other aliquots were collected on a glass fiber filter. When the filters were dry, the phthalocyanines were extracted into ethanol and the absorption determined at the peak wavelength, usually 668 nm. Values were converted to nmoles taken up by 10^6 cells, using an extinction coefficient of 2.93×10^5.

[2] = system: Chinese hamster V79-379 lung fibroblasts; assay: Clonogenic cell survival of V79 cells after photodynamic treatment; assay type: cell-based; settings: for LD 90 (light dosage that kills 90% of cells): 18 hours, 675 nm red light, VII# preplated data only, XXI* not totally soluble at 0.5 mM
Experimental: Cells were irradiated at a density of approximately 2×10^6 per 25 cm^2 flask. Immediately after irradiation, the cell monolayer was treated with trypsin, and appropriate aliquots were plated in triplicate to give 100 to 200 colonies in each 10-cm Petri dish. Cell survival was determined by the ability of the cells to form colonies containing at least 50 cells. The response of cells treated with 1 μM AlPcCl and light was compared in each experiment.
Photocytotoxicity of the phthalocyanines compounds I to VI was also assessed by clonogenic assay (Table 1, FIG. 1). In all experiments, 1 μM AlPcCl was included for comparison purposes. From the survival curves (FIG. 1), the fluence reducing the cell survival to 10% (F10) was obtained. The ratio of the F10 for AlPcCl and the F10 for the test compound is recorded in Table 1. Compounds I and II appear to be nearly as efficient photosensitizers as AlPcCl, while compound IV (assayed at half the concentration) was almost twice as efficient as the standard AlPcCl. […] However, in spite of the low efficiency of compound V in inhibiting cell growth, survival measurements were made for this compound, because it was taken up into V79 cells somewhat more efficiently than compounds III and VI.
In order to take differences in cellular uptake into consideration in the assessment of the relative efficiency of these phthalocyanines as photosensitizers of V79 cells, the survival data were replotted against the product of intracellular phthalocyanine concentration and light fluence (FIG. 2). From these curves, the product of intracellular concentration and light fluence reducing survival to 10% (CF10) was obtained, and comparisons of the values for AlPcCl and the test compounds are recorded in Table 1. By this and the other criteria, compound IV appears to be the most efficient photosensitizer. However, when consideration is given to the lesser cell uptake of compound V, it appears to be about as strong a photosensitizer as compound IV.
Using the cell culture methods described above, V79 cells Chinese hamster lung fibroblasts were treated with either 0.5 or 1.0 μM of the phthalocyanines listed in Table 3. About 18 hours thereafter, the cells were irradiated with increasing doses of 675 nm broad band red light from a 500 W tungsten-halogen lamp fitted with a 600 nm high pass filter, to determine the light dosage that would kill 90% of the phthalocyanine treated cells. Where 90% of the cells were not killed, the maximum percent of cells killed were determined, (expressed as % survival) and the related light dosage recorded.

[3] = system: L5178Y cells; assay: Induction of apoptosis (DNA ladder) in L5178Y cells after PDT; assay type: cell-based, Mouse; settings: for induction of apoptosis: 1 μM at a fluence of 30 kJ/m^2; for Fluence, Minimum Demonstrated Condition to Induce Apoptosis / C × F Ld90, Minimum Demonstrated Condition to Induce Apoptosis: 0.5 μM; for C × F Ld90, Minimum Demonstrated Condition to Induce Apoptosis: product of concentration and fluence
Experimental: The cells were used while in exponential growth. Stock solutions of either 0.5 or 1 mM of PcIV, PcXII, PcX, PcXVIII were prepared in dimethylformamide unless otherwise indicated and added to the 10 mL medium at a rate of 1 μL per mL. After allowing 18 hours for uptake of the phthalocyanine into the cells, the flasks containing the cultures were placed on a glass exposure tray above a 500-W tungsten-halogen lamp. The exposure tray was fitted with a 600-nm high-pass filter. Flasks were exposed to various fluences of red light (up to 30 kJ/m^2) at a fluence rate of approximately 74 W/m^2). After irradiation, the cells were collected by centrifugation.
The aliquots were plated in sufficient numbers to produce 50-200 colonies. The dishes were kept in an incubator at 37° C. in an atmosphere of 5% CO2 and 95% air for 10-14 days to allow viable cells to form colonies. Colonies were counted by eye. […] The plating efficiencies of the treated cells are normalized to the plating efficiencies of control cells in each experiment.
Cells were treated with various concentrations of the compounds listed in the table and various light fluences. DNA gels were prepared and examined for the characteristic “ladder” pattern of DNA fragments. For each Pc, the minimum total PDT dose tested (calculated as the product of the minimum phthalocyanine concentration and the minimum fluence) which produced visible DNA fragments is recorded. […] PcXVIII was also added at 0.5 and 1.0 μM.

Structure (SMILES)	Uptake Into V79 Cells, 1 μM ([1]; 18 hours)	Uptake Into V79 Cells, 4 μM ([1]; 18 hours)	n Moles/10^6 Cells/μM (composite uptake value) [1]	also measured
CCN(CC)c1ccc2c(c1)Oc1cc(N(CC)CC)ccc1C21c2ccccc2C(=O)N1CCCC[Si](C)(C)O[Si]1(O[Si](C)(C)C(C)(C)C)n2c3c4ccccc4c2N=C2N=C(N=c4c5ccccc5c(n41)=NC1=NC(=N3)c3ccccc31)c1ccccc12 (centres unmarked) [Compound XV, (CH3)3C(CH3)2SiOSiPcOSi(CH3)2(CH2)4NCOC27H30N2O]	0.01 ± 0.01 n Moles/10^6 cells	0.14 ± 0.12 n Moles/10^6 cells	<0.05 n Moles/10^6 Cells/μM	Maximum Effect (% survival at kj/m^2) ([2]; 4 μM, at 20 kj/m^2): 81% at 20; induction of apoptosis [3]: did not induce apoptosis
C[Si](C)(CCCCNC(=S)N[C@@H]1O[C@H](CO)[C@@H](O)[C@H](O)[C@H]1O)O[Si]1(O[Si](C)(C)CCCCNC(=S)N[C@@H]2O[C@H](CO)[C@@H](O)[C@H](O)[C@H]2O)n2c3c4ccccc4c2N=C2N=C(N=c4c5ccccc5c(n41)=NC1=NC(=N3)c3ccccc31)c1ccccc12 [Compound XI, SiPc[OSi(CH3)2(CH2)4NHCSNHC6H111O5]2]	0.1 n Moles/10^6 cells	0.3 ± 0.1 n Moles/10^6 cells	0.1 n Moles/10^6 Cells/μM	Maximum Effect (% survival at kj/m^2) ([2]; 1 μM, at 20 kj/m^2): 100% at 20; induction of apoptosis [3]: did not induce apoptosis
CCCCN1CCN(CCC[Si](C)(C)O[Si]2(O)n3c4c5ccccc5c3N=C3N=C(N=c5c6ccccc6c(n52)=NC2=NC(=N4)c4ccccc42)c2ccccc23)CC1 (centres unmarked) [Compound XXXI, HOSiPCOSi(CH3)2(CH2)3NC4H8N(CH2)3CH3]	–	–	0.3 n Moles/10^6 Cells/μM	Uptake Into V79 Cells, 2 μM ([1]; 2 μM, 18 hours): 0.61 ± 0.1 n Moles/10^6 cells; Maximum Effect (% survival at kj/m^2) ([2]; 0.5 μM, at 10 kj/m^2): 30% at 10
C[Si](C)(CCCN1CCOCC1)O[Si]1(O)n2c3c4ccccc4c2N=C2N=C(N=c4c5ccccc5c(n41)=NC1=NC(=N3)c3ccccc31)c1ccccc12 (centres unmarked) [Compound XIX, HOSiPcOSi(CH3)2(CH2)3NC4H8O]	0.3 ± 0.1 n Moles/10^6 cells	2.4 ± 0.5 n Moles/10^6 cells	–	Maximum Effect (% survival at kj/m^2) ([2]; 1 μM, at 10 kj/m^2): 81% at 10
CC(=O)OCCC[Si](C)(C)O[Si]1(O)n2c3c4ccccc4c2N=C2N=C(N=c4c5ccccc5c(n41)=NC1=NC(=N3)c3ccccc31)c1ccccc12 (centres unmarked) [Compound XIII, HOSiPcOSi(CH3)2(CH2)3OCOCH3]	–	1.7 ± 0.3 n Moles/10^6 cells	0.4 n Moles/10^6 Cells/μM	Maximum Effect (% survival at kj/m^2) ([2]; 1 μM, at 15 kj/m^2): 88% at 15
C[Si](C)(CCCCN)O[Si]1(O[Si](C)(C)CCCCN)n2c3c4ccccc4c2N=C2N=C(N=c4c5ccccc5c(n41)=NC1=NC(=N3)c3ccccc31)c1ccccc12 [Compound VII, SiPc[OSi(CH3)2(CH2)4NH2]2]	0.2 ± 0.03 n Moles/10^6 cells	1.1 ± 0.5 n Moles/10^6 cells	0.2 n Moles/10^6 Cells/μM	LD 90 (light dosage that kills 90% of cells) ([2]; 0.5 μM): 4 kj/m^2; Fluence, Minimum Demonstrated Condition to Induce Apoptosis [3]: 3.0 kJ/m^2; C × F Ld90, Minimum Demonstrated Condition to Induce Apoptosis [3]: 1.5 kJ/m^2
C[Si](C)(CCCN=C=S)O[Si]1(O)n2c3c4ccccc4c2N=C2N=C(N=c4c5ccccc5c(n41)=NC1=NC(=N3)c3ccccc31)c1ccccc12 (centres unmarked) [Compound XXVI, HOSiPcOSi(CH3)2(CH2)3NCS]	–	–	–	Maximum Effect (% survival at kj/m^2) ([2]; 1 μM, at 30 kj/m^2): 100% at 30
CN(C)CCCCCCCC[Si](C)(C)O[Si]1(O)n2c3c4ccccc4c2N=C2N=C(N=c4c5ccccc5c(n41)=NC1=NC(=N3)c3ccccc31)c1ccccc12 (centres unmarked) [Compound XXII, HOSiPcOSi(CH3)2(CH2)8N(CH3)2]	–	–	–	LD 90 (light dosage that kills 90% of cells) ([2]; 0.5 μM): 10 kj/m^2; Fluence, Minimum Demonstrated Condition to Induce Apoptosis [3]: 10.0 kJ/m^2; C × F Ld90, Minimum Demonstrated Condition to Induce Apoptosis [3]: 5.0 kJ/m^2
C[Si](C)(CCCN1CCSCC1)O[Si]1(O)n2c3c4ccccc4c2N=C2N=C(N=c4c5ccccc5c(n41)=NC1=NC(=N3)c3ccccc31)c1ccccc12 (centres unmarked) [Compound XXIV, HOSiPCOSi(CH3)2(CH2)3NC4H8S]	0.003 ± 0.001 n Moles/10^6 cells	1.3 ± 0.1 n Moles/10^6 cells	<0.05* n Moles/10^6 Cells/μM	Maximum Effect (% survival at kj/m^2) ([2]; 0.5 μM, at 10 kj/m^2): 100% at 10
C[Si](C)(CCCO)O[Si]1(O)n2c3c4ccccc4c2N=C2N=C(N=c4c5ccccc5c(n41)=NC1=NC(=N3)c3ccccc31)c1ccccc12 (centres unmarked) [Compound XVII, HOSiPCOSi(CH3)2(CH2)3OH]	–	1.7 ± 0.2 n Moles/10^6 cells	0.4 n Moles/10^6 Cells/μM	Maximum Effect (% survival at kj/m^2) ([2]; 1 μM, at 10 kj/m^2): 19% at 10
CCCCN(CCCC)CCC[Si](C)(C)O[Si]1(O)n2c3c4ccccc4c2N=C2N=C(N=c4c5ccccc5c(n41)=NC1=NC(=N3)c3ccccc31)c1ccccc12 (centres unmarked) [Compound XXV, HOSiPcOSi(CH3)2(CH2)3N(CH2)3CH3)2]	0.02 ± 0.02 n Moles/10^6 cells	1.5 ± 0.3 n Moles/10^6 cells	<0.05* n Moles/10^6 Cells/μM	Maximum Effect (% survival at kj/m^2) ([2]; 0.5 μM, at 8 kj/m^2): 87% at 8
CCCCCCCCCCCC[N+](C)(C)CCC[Si](C)(C)[O][Al]1[n]2c3c4ccccc4c2N=C2N=C(N=c4c5ccccc5c([n]41)=NC1=NC(=N3)c3ccccc31)c1ccccc12.[I-] [Compound XXI, AlPcOSi(CH3)2(CH2)3N^+(CH3)2)(CH2)11CH3I^−]	1.2 ± 0.2 n Moles/10^6 cells	5.8 ± 0.4 n Moles/10^6 cells	1.3 n Moles/10^6 Cells/μM	LD 90 (light dosage that kills 90% of cells) ([2]; 0.5 μM): 15* kj/m^2
CN(C)CCCN(CCCN(C)C)CCC[Si](C)(C)O[Si]1(O)n2c3c4ccccc4c2N=C2N=C(N=c4c5ccccc5c(n41)=NC1=NC(=N3)c3ccccc31)c1ccccc12 (centres unmarked) [Compound XXVII, HOSiPcOSi(CH3)2(CH2)3N[(CH2)3N(CH3)2]2]	1.8 n Moles/10^6 cells	5.0 ± 0.01 n Moles/10^6 cells	1.5 n Moles/10^6 Cells/μM	LD 90 (light dosage that kills 90% of cells) ([2]; 0.5 μM): 6.8 kj/m^2
CCCCCCCCCCCC[N+](C)(C)CCC[Si](C)(C)O[Si]1(O[Si](C)(C)CCC[N+](C)(C)CCCCCCCCCCCC)n2c3c4ccccc4c2N=C2N=C(N=c4c5ccccc5c(n41)=NC1=NC(=N3)c3ccccc31)c1ccccc12 [Compound XIV, SiPc[OSi(CH3)2(CH2)3N^+(CH3)2(CH2)11CH3]22I^−]	0.03 ± 0.01 n Moles/10^6 cells	0.05 ± 0.01 n Moles/10^6 cells	<0.05 n Moles/10^6 Cells/μM	Maximum Effect (% survival at kj/m^2) ([2]; 1 μM, at 10 kj/m^2): 93% at 10; induction of apoptosis [3]: did not induce apoptosis

— patent US8211883B2, “Topical delivery of phthalocyanines” (priority 2004, dated 2012)
